Patent US11802285B2, “Cytotoxic T cell response modifiers” (DEUTSCHES KREBSFORSCHUNGSZENTRUM STIFTUNG DES ÖFFENTLICHEN …, priority 2013, dated 2023)

Tested on: MCF7 breast cancer cells
Assay: Luc-CTL assay (luciferase-based readout of CTL-mediated tumor cell lysis, with viability control without CTLs)
Conditions: for T cell mediated lysis of luciferase transfected MCF7 breast cancer target cells (reduction of luciferase activity): co-culture with survivin specific CTL clone, deconvoluted siRNA pool (FIG. 5A, 10A); for viability of luciferase transfected MCF7 breast cancer cells: in the absence of T cells (FIG. 5B, 10B)
Text: In order to comprehensively identify immune checkpoint regulators in an unbiased manner, we harnessed a previously described approach to measure tumor-specific T-cell cytotoxicity which is based on quantifying residual cell-associated luciferase expression following exposure of Luc-expressing cancer cells with CTLs (Brown et al., 2005). We adapted and extended aforementioned approach for high-throughput RNAi screening purposes and termed it ‘Luc-CTL’ assay. Briefly, the screening experiment was set up as follows: In total, three RNAi screens were performed in duplicate and reverse transfection of cells with siRNA pools was performed by delivering 15 μl of RPMI (Invitrogen) containing 0.05 μl of RNAiMAX (Invitrogen). After 30 min of incubation at room temperature, 3000 MCF7 cells (screen 1: MCF7 stably expressing luciferase, screen 2 and 3: wild-type MCF7 cells) in 30 μl of DMEM medium (Invitrogen) supplemented with 10% FBS (Invitrogen) were added to the siRNA transfection mix. Plates were then incubated at 37° C., 5% CO2. 24 h later, cells were either transiently transfected with a luciferase expression plasmid (screen 2) using TransIT-LT1 transfection reagent (Mirius Bio LLC, Madison, USA) according to the manufacturer's instructions or not (screen 1 and screen 3). 72 h post siRNA transfection cancer cells were either challenged with CTLs and anti-CD3×anti-EpCAM bi-specific antibody (screen 1 and screen 2; condition with addition of CTLs) or not (screen 1 and screen 2; condition without addition of CTLs and screen 3). […]
Plate reader data from RNAi screens were statistically analyzed using the cellHTS2 package in R/Bioconductor (Boutros et al., 2006). […] For screen 1 and screen 2, scores from both conditions, i.e. addition of CTLs and without addition of CTLs, were further quantile normalized against each other using the aroma.light package in R. Differential scores were calculated by subtracting quantile normalized scores without addition of CTLs from scores derived with addition of CTLs. In order to robustly identify genes that positively modulate CTL mediated cytotoxicity and to avoid biases potentially introduced by employing CTLs from different donors and employing genetically engineered as well as unmodified MCF7 cells, the 150 top-ranking genes as evaluated by the differential score were extracted for the independent screens 1 and 2 and the overlap between candidate lists was determined. […] Thereby, siRNAs generally affecting cell viability, as determined by intracellular ATP levels, could be excluded.
In order to identify tumor-associated genes that inhibit cell killing by cytotoxic T lymphocytes (CTL), we adapted a luciferase-based readout assay, henceforth referred to as Luc-CTL assay (FIG. 1A). […]

Substance | T cell mediated lysis of luciferase transfected MCF7 breast cancer target cells (reduction of luciferase activity) | viability of luciferase transfected MCF7 breast cancer cells
TAS2R3 siRNA s3: TAS2R3 siRNA, sequence CCGCAUCUCUGAUCAAUGA, SEQ ID NO: 3 (listed as RNA, chemistry not given here) | significantly increase | no impact
TAS2R3 siRNA s4: TAS2R3 siRNA, sequence GCAGACAUUUGUAGUGAUG, SEQ ID NO: 4 (listed as RNA, chemistry not given here) | significantly increase | no impact
